Results published in patent US20240317762A1, “PHTHALAZINONE-BASED PARP-1 INHIBITORS” (Oregon Health & Science University, priority 2021, published 2024).

Assays:
PARP-1 [1] = biological target: T1, PARP-1 (Homo sapiens, UniProt P09874); experiment: PARP-1 PARylation after washout (off-rate analysis); type: cell-based; details: 300 nM, 30 minutes, no washout; read-out: inhibition of PARP-1-mediated PARylation activity prior to washout
Description: For off-rate analysis, after 30 minute pre-treatment with indicated inhibitors, cells were washed once before incubating for 0, 3, 6, or 12 hours in fresh media. Following release times, cells were incubated with PDD 00017273 (10 μM) for 30 minutes before proceeding using the same western blot protocol detailed above. Statistical significance was established through multiple unpaired t-tests with nonlinear regression fit analysis.
FIGS. 6A-6E. […] 0.1 μM ad-olaparib (chemical structure indicated in panel a) was added to the cells for 1 hour before undergoing a UV treatment for 5 minutes in cold PBS. Cells were lysed and sonicated in PBS (1% Triton X-100+1% SDS), clicked with TAMRA-azide and run out on SDS-PAGE. The gel was imaged for TAMRA and probed for PARP-1 (Bethyl Laboratories), and alpha-tubulin (X). FIGS. 6B, 6D) Quantification of western blot images. TAMRA or ADPr values are normalized to PARP-1 within each replicate and plotted as percentage compared to DMSO. Error bars indicate SEM (n=3-4). Statistical significance of off-rate calculated via multiple t-tests (p<0.05). […] Cells were subsequently treated with PARGi (10 μM) for 30 minutes, lysed using RIPA buffer, run out on SDS-PAGE, and probed for ADPr (Cell Signaling) and PARP-1 (Bethyl Laboratories). […] IC50 values were calculated using R statistical software.

[2] = test system: Ewing sarcoma cell line EW-8; experiment: ES-8 viability screen (CellTiter-Glo); type: cell-based
Description: Cell viability was measured using the CellTiter-Glo (Promega, G7573) assay and read using an Envision (PerkinElmer) plate reader. Compound source plates (96-well) were prepared by solubilizing each drug in DMSO to a maximum concentration of 1-50 mM, then arraying samples in 10-point dose-response with 3-fold dilution. Positive and negative controls (staurosporine at 10 mM and DMSO, respectively) were added to the source plates. Drug was transferred from the source plate to the assay plate using a Biomek FX (Beckman Coulter) liquid handler equipped with a pin tool which transferred ˜100 nl into a final volume of 100 μl, resulting in ˜1000-fold dilution. At least two biological replicates (assay performed on different day with same drug plate and independent cell preparation) were obtained for each drug. To analyze the assay, the relative light unit signal in each well was first log 2 transformed, then normalized by subtracting the mean of the negative controls wells on each plate.
(§1) FIGS. 6A-6E. […] 0.1 μM ad-olaparib (chemical structure indicated in panel a) was added to the cells for 1 hour before undergoing a UV treatment for 5 minutes in cold PBS. Cells were lysed and sonicated in PBS (1% Triton X-100+1% SDS), clicked with TAMRA-azide and run out on SDS-PAGE. The gel was imaged for TAMRA and probed for PARP-1 (Bethyl Laboratories), and alpha-tubulin (X). FIGS. 6B, 6D) Quantification of western blot images. TAMRA or ADPr values are normalized to PARP-1 within each replicate and plotted as percentage compared to DMSO. Error bars indicate SEM (n=3-4). Statistical significance of off-rate calculated via multiple t-tests (p<0.05). […] Cells were subsequently treated with PARGi (10 μM) for 30 minutes, lysed using RIPA buffer, run out on SDS-PAGE, and probed for ADPr (Cell Signaling) and PARP-1 (Bethyl Laboratories). FIG. 6E) ES-8 cells were treated with indicated concentration of inhibitors for 72 hours before measuring cell viability using the CellTiter-Glo kit (Promega G7573). IC50 values were calculated using R statistical software.

PARP-1 [3] = biological target: T1, PARP-1; experiment: in-cell competition labeling with ad-olaparib photoaffinity probe; type: cell-based
Description: Photocrosslinking in intact cells. HEK293 CRL and PARP-1 KO cells were grown in DMEM for 2 days in a 60 mm dish for 2 days to reach 80-90% confluency. […] Cells were then washed once with PBS, covered with PBS and irradiated for 5 min in the RPR-100 Photochemical Reactor (Rayonet) equipped with 350 nm lamps at 4° C. Cells were lysed on ice in 1% SDS, 1% Triton X-100 and EDTA-free protease inhibitor cocktail (Roche) in PBS for 10 min and then probe sonicated to shear the nuclear DNA. Protein concentration was determined with Bio-Rad Protein assay. The lysate was diluted in PBS to a final Click reaction concentration of 2 mg/mL.
Click Chemistry. Reaction was started by mixing 30 μL of each sample with 15 μL of PBS based 3× Click reaction mixture containing (final concentrations): 100 μM Tris[(1-benzyl-1H-1,2,3triazol-4-yl)methyl]amine (TBTA, Click Chemistry Tools), 1 mM CuSO4, 40 μM tetramethylrhodamine (TAMRA)-azide (Click Chemistry Tools), 1 mM Tris(2-carboxyethyl)phosphine hydrochloride (TCEP, Thermo Fisher) and 15% tert-Butyl alcohol, and let to procced for 1 h at RT while gently shaking. Reactions were stopped by adding 4× Laemmli sample buffer and boiling at 95° C. for 5 min.
In gel fluorescence, western blotting and quantification. Samples were loaded to 8 or 10% SDS-polyacrylamide gels and run until the dye front left the gel. First, in-gel fluorescence was detected with ChemiDoc XRS+ (Biorad) using Rhodamine filter and then the proteins were transferred on nitrocellulose membrane, the membrane was blocked and probed for PARP-1 (1:3000) and alpha-tubulin (1:1000). Both antibodies were from cell signaling. Band intensities we quantified with ImageJ.
as §1

PARP-1 [4] = biological target: T1, PARP-1; experiment: PARP-1 auto-PARylation activity assay in cells; type: cell-based
Description: Cells were washed with PBS, and lysed in RIPA buffer (50 mM Tris-HCl [pH 8.0], 150 mM NaCl, 0.1% SDS, 1% Triton X-100, 1× cOmplete™ protease inhibitors (Roche), and 1 μM Veliparib). […] Following quantification, 4× Laemmli sample buffer with 5% β-mercaptoethanol was added to 25-50 μg of protein.
Membrane blots were blocked with 5% milk-PBST for 1 h at RT, followed by incubation with a rabbit pan-ADP-ribose binding reagent (Cell Signaling), a rabbit PARP-1 antibody (Bethyl Laboratories), or a mouse b-actin antibody (Santa Cruz Biotechnology) for 2 h at RT, followed by incubation with HRP-conjugated secondary antibodies. […] Blots were imaged for chemiluminescent signal on a ChemiDoc MP system (BioRad). Statistical significance was established through multiple unpaired t-tests with nonlinear regression fit analysis.
FIGS. 5A-5F. […] An unlabeled competitor was added and the decrease in fluorescence polarization was measured across time. […] Error bars represent SEM. […] Error bars represent SEM. […] Cells were subsequently lysed using RIPA buffer, run out on SDS-PAGE, and probed for ADPr (Cell Signaling) and PARP-1 (Bethyl Laboratories). FIG. 5F) Quantification of western blot images. ADPr values are normalized to PARP-1 within each replicate and plotted as percentage compared to DMSO. Error bars indicate SEM (n=3).

PARP-1 [5] = biological target: T1, PARP-1; experiment: in vitro PARP-1 auto-PARylation assay (SRPK2 plate assay); type: biochemical; design: The full-length WT PARP-1 protein used in these assays; made in house
Description: IC50 SRPK2 Plate Assays were performed as previously described (21). Log(inhibitor) versus response curves were fit using non-linear regression with variable slope. Mean IC50 values for each compound were derived from a minimum of three separate replicates.

PARP-1 [6] = biological target: T1, PARP-1; experiment: fluorescence polarization DNA binding affinity assay; details: 5 μM inhibitor; compared to DMSO control
Description: The full-length WT PARP-1 protein used in these assays was purified as described previously (30).

HEK 293T cells = experiment: cell proliferation (MTT) assay; type: cell-based, human; details: MTT, 72 h
Description: HEK 293T or HEK 293 PARP-1 KO cells were seeded in a 96 well plate at 1000-2000 cells per well. Following an overnight incubation, MTT reagent, 3-(4,5-dimethylthiazol-2-yl)-2,5-diphenyltetrazolium bromide, or a dosage curve of indicated inhibitor was added to each well in quadruplicate. Following a 3-hour incubation at 37° C., wells containing MTT reagent, were aspirated and lysed with 100 μl DMSO. These wells acting as a no growth control were collected, saved @ −20° C., and replaced with 100 μl water. The plate was placed back into the incubator for a total of 72 hours of inhibitor treatment prior to MTT reagent being added for a final time. Following a 3 hour incubation with the reagent, wells were aspirated, and 100 μl DMSO were added to each well, while the no growth control sample was added back to the plate. Absorbance was read on a SpectraMaxi3 plate reader (Molecular Devices). Percent growth was calculated for analysis. Statistical significance was assigned using individual t-tests between conditions for each inhibitor dosage.
Error bars represent SEM. […] Error bars represent SEM. […] Error bars represent SEM.

T1 sequence (P09874 whole entry): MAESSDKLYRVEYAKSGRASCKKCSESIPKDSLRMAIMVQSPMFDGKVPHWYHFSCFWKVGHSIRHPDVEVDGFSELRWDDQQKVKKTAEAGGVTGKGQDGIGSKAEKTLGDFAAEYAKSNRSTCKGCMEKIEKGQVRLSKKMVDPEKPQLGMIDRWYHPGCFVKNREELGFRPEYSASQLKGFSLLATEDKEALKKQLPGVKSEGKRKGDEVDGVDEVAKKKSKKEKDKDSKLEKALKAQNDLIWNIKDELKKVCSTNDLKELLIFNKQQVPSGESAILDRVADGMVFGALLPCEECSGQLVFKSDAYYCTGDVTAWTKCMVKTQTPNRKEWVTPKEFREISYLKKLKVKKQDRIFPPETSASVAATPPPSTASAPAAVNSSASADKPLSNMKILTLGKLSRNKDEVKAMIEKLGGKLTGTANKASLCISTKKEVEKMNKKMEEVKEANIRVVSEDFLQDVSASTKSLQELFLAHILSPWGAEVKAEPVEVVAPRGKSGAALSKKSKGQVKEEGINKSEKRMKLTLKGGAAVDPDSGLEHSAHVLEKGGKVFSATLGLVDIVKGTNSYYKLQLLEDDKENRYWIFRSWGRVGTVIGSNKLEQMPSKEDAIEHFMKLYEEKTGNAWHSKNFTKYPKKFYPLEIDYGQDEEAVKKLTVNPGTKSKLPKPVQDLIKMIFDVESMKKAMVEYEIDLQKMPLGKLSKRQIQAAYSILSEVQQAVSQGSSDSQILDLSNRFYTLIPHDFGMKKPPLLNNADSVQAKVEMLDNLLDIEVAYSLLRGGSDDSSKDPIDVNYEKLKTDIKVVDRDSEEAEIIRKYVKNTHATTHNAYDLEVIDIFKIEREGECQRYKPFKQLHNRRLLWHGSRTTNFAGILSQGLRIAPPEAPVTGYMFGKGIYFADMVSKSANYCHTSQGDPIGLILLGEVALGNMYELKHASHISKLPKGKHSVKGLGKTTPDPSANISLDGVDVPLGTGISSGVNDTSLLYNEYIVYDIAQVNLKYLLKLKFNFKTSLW

C[C@H]1Cn2c(nnc2C(C)(F)F)CN1C(=O)c1cc(Cc2n[nH]c(=O)c3ccccc23)ccc1F [Pip6, (S)-4-(3-(3-(1,1-difluoroethyl)-6-methyl-5,6,7,8-tetrahydro-[1,2,4]triazolo[4,3-a]pyrazine-7-carbonyl)-4-fluorobenzyl)phthalazin-1(2H)-one]
inhibition at 0.3 µM (PARP-1 [1]): > 90% | fold more cytotoxic than AZ0108 in Ewing sarcoma cells [2]: ~80 fold | Fold Difference to Pip6 ([2]; ratio of EC50 values): 1 | EC50 ([2]; viability, 72 h): 0.24 nM | EC50 (nM) ([2]; viability, 72 h): sub-nanomolar | labeling of PARP-1 by ad-olaparib after pre-treatment (PARP-1 [3]; 10 μM inhibitor, 0.1 μM ad-olaparib): substantially blocked | residence time on PARP-1 compared to AZ0108 (PARP-1 [3]; in cells and in vitro): longer residence time | recovery of labeling of PARP-1 by ad-olaparib after washout (PARP-1 [3]; washout (3 h)): not recovered | fold more potent than AZ0108 in inhibiting PARP-1 PARylation in HEK 293 cells (PARP-1 [4]): ~20 fold | EC50 (PARP-1 [4]; 30 min inhibitor, then PARG inhibitor PDD00017273, read-out: EC50 inhibiting PARP-1 PARylation in HEK 293 cells): 2.3 nM | IC50 (PARP-1 [4]; FIG. 5F, nonlinear regression, read-out: IC50 of dose curves, quantification of western blot (ADPr normalized to PARP-1)): 2.26 nM | potency against PARP-1 auto-PARylation compared with AZ0108 (PARP-1 [5]): equipotent | effect on the affinity of PARP-1 for nicked DNA (PARP-1 [6]): more pronounced effect on DNA binding than Pip5 | EC50 (HEK 293T cells; Homo sapiens, HEK-293T, read-out: EC50 cell growth): 0.94 nM | potency in inhibiting cell growth compared with AZ0108 (HEK 293T cells): substantially more potent than AZ0108
